Where “and” joins values, the source holds several entries; their conditions need not be identical. Equal entries are not always repeated. Where two headings read alike, the source gives them in different places.

Series [1] has as its system Myzus persicae (Green Peach Aphid). In words: Myzus persicae systemic test, roots of infested pea seedlings in test solution. The conditions noted are these: 144 h, test rate 24 ppm, 6 days after placing seedlings in test solutions. It counts as in vivo. The protocol:
Example B6: Myzus persicae (Green Peach Aphid)
Roots of pea seedlings infested with an aphid population of mixed ages were placed directly in the aqueous test solutions prepared from 10,000 DMSO stock solutions. The samples were assessed for mortality 6 days after placing seedlings in test solutions.

Series [2] has the same test system. As to the kind of experiment: Myzus persicae, sucrose solution feeding through Parafilm. It is filed as in vivo. The settings on record: 120 h, test rate 12 ppm, 5 days after infestation. The protocol: Example B7: Myzus persicae (Green Peach Aphid)
Test compounds from 10,000 ppm DMSO stock solutions were applied by pipette into 24-well microtiter plates and mixed with sucrose solution. The plates were closed with a stretched Parafilm. A plastic stencil with 24 holes was placed onto the plate and infested pea seedlings were placed directly on the Parafilm. The infested plate was closed with a gel blotting paper and another plastic stencil and then turned upside down. The samples were assessed for mortality 5 days after infestation.

For series [3] the test system is unchanged. As to the kind of experiment: Myzus persicae, sprayed sunflower leaf discs, mixed-age population. It is filed as in vivo. The settings on record: foliar, 144 h, application rate 200 ppm, 6 days after infestation. The method, then:
Example B5: Myzus persicae (Green Peach Aphid)
Sunflower leaf discs were placed on agar in a 24-well microtiter plate and sprayed with aqueous test solutions prepared from 10,000 ppm DMSO stock solutions. After drying, the leaf discs were infested with an aphid population of mixed ages. The samples were assessed for mortality 6 days after infestation.

Series [4] deals with Diabrotica balteata (Corn Root Worm). In words: Diabrotica balteata, treated artificial diet, L2 larvae. It is filed as in vivo. The conditions noted are these: 120 h, read-out: effect in at least one of the two categories (mortality or growth inhibition). The protocol: Example B4: Diabrotica balteata (Corn Root Worm)
24-well microtiter plates with artificial diet were treated with aqueous test solutions prepared from 10,000 ppm DMSO stock solutions by pipetting. After drying, the plates were infested with L2 larvae (6 to 10 per well). The samples were assessed for mortality and growth inhibition in comparison to untreated samples 5 days after infestation.
The following compounds gave an effect of at least 80% in at least one of the two categories (mortality or growth inhibition) at an application rate of 200 ppm: […]

In series [5] the test system is Bemisia tabaci (Cotton White Fly). In words: Bemisia tabaci, sprayed cotton leaf discs, adult white flies. It is filed as in vivo. The settings on record: foliar, 144 h, application rate 200 ppm, 6 days after incubation. The method, then: Example B10: Bemisia tabaci (Cotton White Fly)
Cotton leaf discs were placed on agar in 24-well microtiter plates and sprayed with aqueous test solutions prepared from 10,000 ppm DMSO stock solutions. After drying the leaf discs were infested with adult white flies. The samples were checked for mortality 6 days after incubation.

Series [6] concerns Spodoptera littoralis (Egyptian Cotton Leaf Worm). As to the kind of experiment: Spodoptera littoralis, sprayed cotton leaf discs, L1 larvae. It is filed as in vivo. The settings on record: foliar, 72 h, read-out: mortality (control). The method, then: Example B2: Spodoptera littoralis (Egyptian Cotton Leaf Worm)
Cotton leaf discs were placed on agar in 24-well microtiter plates and sprayed with aqueous test solutions prepared from 10,000 ppm DMSO stock solutions. After drying the leaf discs were infested with five L1 larvae. The samples were assessed for mortality 3 days after infestation.

Series [7] has as its system Plutella xylostella (Diamond Back Moth). In words: Plutella xylostella, treated artificial diet, L2 larvae. It counts as in vivo. The settings on record: 120 h, application rate 200 ppm, 5 days after infestation. The protocol: Example B3: Plutella xylostella (Diamond Back Moth)
24-well microtiter plates with artificial diet were treated with aqueous test solutions prepared from 10,000 ppm DMSO stock solutions by pipetting. After drying, the plates were infested with L2 larvae (10 to 15 per well). The samples were assessed for mortality 5 days after infestation.

In series [8] the test system is Tetranychus urticae (Two-Spotted Spider Mite). In words: Tetranychus urticae, sprayed bean leaf discs, mixed-age mite population. It counts as in vivo. The settings on record: foliar, 192 h, read-out: mortality on mixed population (mobile stages). The method, then:
Example B11: Tetranychus urticae (Two-Spotted Spider Mite)
Bean leaf discs on agar in 24-well microtiter plates were sprayed with aqueous test solutions prepared from 10,000 ppm DMSO stock solutions. After drying the leaf discs were infested with a mite population of mixed ages. The samples were assessed for mortality on mixed population (mobile stages) 8 days after infestation.

Series [9] concerns Spodoptera littoralis (Egyptian Cotton Leaf Worm). As to the kind of experiment: Spodoptera littoralis systemic test, lettuce grown on treated agar, infested with eggs. It is filed as in vivo. The settings on record: 144 h, test rate 12.5 ppm, assessed 6 days after infestation, in comparison to untreated samples, read-out: effect in at least one of the three categories (mortality, anti-feedancy, or growth inhibition). The text has this: Example B1: Spodoptera littoralis (Egyptian Cotton Leaf Worm)
Test compounds were applied by pipette from 10,000 ppm DMSO stock solutions into 24-well plates and mixed with agar. Lettuce seeds were placed on the agar and the multi well plate was closed by another plate which contains also agar. After 7 days the roots have absorbed the compound and the lettuce has grown into the lid plate. The lettuce leafs were now cut off into the lid plate. Spodoptera eggs were pipetted through a plastic stencil on a humid gel blotting paper and the plate closed with it. The samples were assessed for mortality, anti-feedant effect and growth inhibition in comparison to untreated samples 6 days after infestation.
The following compounds gave an effect of at least 80% in at least one of the three categories (mortality, anti-feedancy, or growth inhibition) at a test rate of 12.5 ppm: […]

Setting [10] is: application rate 200 ppm, 5 days after infestation, in comparison to untreated samples.
Setting [11] is: application rate 200 ppm, 3 days after infestation.

The mortality is the percentage killed. As for `CCS(=O)(=O)c1nc(C(F)(F)F)sc1-c1nc2cc(C(F)(F)F)ncc2n1C` [Compound V14.05, 4-Ethylsulfonyl-5-[3-methyl-6-(trifluoromethyl)imidazo[4,5-c]pyridin-2-yl]-2-(trifluoromethyl)thiazole], in series [1], the mortality at 24 ppm was at least 80%. Also, the mortality at 12 ppm in series [2] is at least 80%. The mortality at 200 ppm in series [3] was at least 80%.

As usually defined, the melting point is the temperature, or range, at which the solid turns liquid. On to `CCS(=O)(=O)c1nc(C(F)(F)F)sc1-c1cn2ccc(C(F)(F)F)cc2n1`, for which the melting point is 126 to 128 °C.

As for `CCS(=O)(=O)c1cc(C(F)(F)F)cnc1-c1nc2cc(Br)ncc2n1C` [Compound V12.20, 6-bromo-2-[3-ethylsulfonyl-5-(trifluoromethyl)-2-pyridyl]-3-methyl-imidazo[4,5-c]pyridine], the mortality at 24 ppm in series [1] was at least 80%. This molecule gave a mortality at 12 ppm in series [2] of at least 80%. Moreover, the percent effect (mortality or growth inhibition) at 200 ppm in series [4] (setting [10]) was at least 80%. The mortality at 200 ppm in series [5], in [3] and in series [6] (setting [11]) was at least 80% throughout.

Consider `CCS(=O)(=O)c1scnc1-c1nc2cc(C(F)(F)F)ncc2n1C` [Compound V13.05, 5-ethylsulfonyl-4-[3-methyl-6-(trifluoromethyl)imidazo[4,5-c]pyridin-2-yl]thiazole], for which the percent effect (mortality or growth inhibition) at 200 ppm in series [4] (setting [10]) was at least 80%. Besides, the mortality at 200 ppm in [7] and in [5] was at least 80% each time.

`CCSc1cc(C(F)(F)F)cnc1-c1nc2cc(Cl)nnc2n1C`: the melting point lay in the range of 156 to 158 °C.

Consider `CCS(=O)(=O)c1cc(C(F)(F)F)cnc1-c1nc2cc(C(F)(F)F)ncn2n1` [Compound V16.03, 2-[3-ethylsulfonyl-5-(trifluoromethyl)-2-pyridyl]-7-(trifluoromethyl) [1,2,4]triazolo[1,5-c]pyrimidine], for which, in series [1], the mortality at 24 ppm was at least 80%. Further, the percent effect (mortality or growth inhibition) at 200 ppm in series [4] (setting [10]) is at least 80%. In addition, the mortality at 200 ppm in series [7] and in series [3] was at least 80% in each case.

Turning to `CCS(=O)(=O)c1cc(C(F)(F)F)nnc1-c1nc2cc(C(F)(F)F)cnc2n1C`, the melting point was 172 to 174 °C.

Take `CCS(=O)(=O)c1nsnc1-c1nc2cc(C(F)(F)F)cnc2n1C`: the melting point is 144 to 146 °C.

Regarding `CCSc1cc(C(F)(F)F)nnc1-c1nc2cc(C(F)(F)F)cnc2n1C`, the melting point is 149 to 150 °C and 149 to 156 °C.

In turn, `CCS(=O)(=O)c1nc(C(F)(F)F)ccc1-c1cn2ccc(C(F)(F)F)cc2n1` came in with a melting point of 188 to 190 °C.

`CCS(=O)(=O)c1cc(OC(F)F)cnc1-c1nc2cc(C(F)(F)F)ncc2n1C` registered a melting point of 146 to 148 °C.

`CCS(=O)(=O)c1cc(C(F)(F)F)cnc1-c1nc2cc(Cl)nnc2n1C` [Compound V12.17, 3-chloro-6-[3-ethylsulfonyl-5-(trifluoromethyl)-2-pyridyl]-7-methyl-imidazo[4,5-c]pyridazine] returned a mortality at 24 ppm in series [1] of at least 80%. Moreover, the mortality at 12 ppm in series [2] is at least 80%. The same molecule displayed a mortality at 200 ppm in [3] of at least 80%.

With `CC1Cc2c(C(F)(F)F)ccc(-c3nc4cc(C(F)(F)F)cnc4n3C)c2S1(=O)=O` (stereo not shown), the melting point turned out to be 206 °C.

With `CCS(=O)(=O)c1nc(C(F)(F)F)ccc1-c1nc2cc3nc(C(F)(F)F)n(C)c3nc2n1C`, the melting point was in the range of 197 to 199 °C.

`CCS(=O)(=O)c1cc(C(F)(F)F)cnc1-c1nc2nc(C(F)(F)F)cnc2n1C` displayed a melting point of 162 to 165 °C.

Take `Cn1c(-c2ncc(C(F)(F)F)cc2S(C)(=O)=O)nc2cc(C(F)(F)F)ncc21` [Compound V12.18, 3-methyl-2-[3-methylsulfonyl-5-(trifluoromethyl)-2-pyridyl]-6-(trifluoromethyl)imidazo[4,5-c]pyridine]: the mortality at 200 ppm in [8] and in series [6] was at least 80% each time. In addition, the percent effect (mortality or growth inhibition) at 200 ppm in [4] was at least 80%.

`CCS(=O)(=O)c1cc(C(F)(F)F)cnc1-c1cn2cnc(C(F)(F)F)cc2n1` [Compound V16.02, 2-[3-ethylsulfonyl-5-(trifluoromethyl)-2-pyridyl]-7-(trifluoromethyl)imidazo[1,2-c]pyrimidine]: in [9], the percent effect (mortality, anti-feedancy or growth inhibition) at 12.5 ppm is at least 80%. Also, the mortality at 200 ppm is at least 80% in series [8] (application rate 200 ppm, 8 days after infestation); at least 80% in series [7]; at least 80% in series [3]; at least 80% in [6] (setting [11]). In addition, the percent effect (mortality or growth inhibition) at 200 ppm in [4] (setting [10]) was at least 80%.

For the molecule `CCS(=O)(=O)c1cc(C(F)(F)F)cnc1-c1nc2cc(C(F)(F)F)ncn2c1C` [Compound V16.01, 2-[3-ethylsulfonyl-5-(trifluoromethyl)-2-pyridyl]-3-methyl-7-(trifluoromethyl)imidazo[1,2-c]pyrimidine], the percent effect (mortality, anti-feedancy or growth inhibition) at 12.5 ppm in series [9] is at least 80%. Further, in series [2], the mortality at 12 ppm is at least 80%. The mortality at 200 ppm in series [7], in [3] and in series [6] (setting [11]) was at least 80% in each case.
